System: CCRF-DEM
Test: NCI cytotoxicity screen (SRB)
Assay type: cell-based, human
Conditions: 48 h; Leukemia CCRF-DEM

In the case of `CN(C)CCNC(=O)c1nc(NC(=O)c2nc(NC(=O)c3nc(NC(=O)CCCc4ccc(N(CCCl)CCCl)cc4)cn3C)cn2C)cn1C` [Compound 10, N-(N',N'-dimethylaminoethyl)-1-methyl-4-{1-methyl-4-[4-(4,4-bis(2-chloroethyl)aminophenyl-1-butanamido)-1-methylimidazole-2-carboxamido]imidazole-2-carboxamido}imidazole-2-carboxamide], the IC50 is reported as 9.67 µM.

From US5273991A, “Imidazole-containing compositions and methods of use thereof analogs of distamycin” (Research Corporation Technologies, Inc., priority 1992, dated 1993)
